This passage reports T/C results from PubChem BioAssay AID180 (DTP/NCI, 2004).

The test system of this assay is BDF1 mice, Adenocarcinoma 755 s.c., tumor weight T/C. Nature of the assay: NCI In Vivo Anticancer Drug Screen. Data for tumor model Adenocarcinoma 755 (subcutaneous) in B6D2F1 (BDF1) mice. Particulars: endpoint: mean tumor weight, higher = larger tumour. The method, boiled down:
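Compound activity was tested in mice carrying transplanted tumors. Survival or tumor size was measured, and each value is the treated-group measurement divided by that of the vehicle-treated control group (T/C).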

The mark [1] stands for this setting: dose: 75.0 mg/kg/injection, schedule: Q01DX011 (ip), vehicle: methylcellulose (MC).

Values joined by “and” are separate entries in the source; they are usually repeats but may differ in a detail not shown here. Identical values can stand only once.

For orientation: T/C means the result in the treated group divided by that in the control group, in per cent.

For `Cn1c[n+](C2OC(CO)C(O)C2O)c2nc([O-])[nH]c(=O)c21` (stereo not drawn), the T/C reads like this: (dose: 25.0 mg/kg/injection, schedule: Q01DX011 (ip), vehicle: methylcellulose (MC)) 65 % of control; under setting [1], 103 % of control; (dose: 225.0 mg/kg/injection, schedule: Q01DX011 (ip), vehicle: methylcellulose (MC)) 44 % of control.
For `CC(C)Cn1cnc2c(SCCc3ccccc3)nc(N)nc21`, the T/C is 52 % of control under setting [1]; 34 % of control (dose: 150.0 mg/kg/injection, schedule: Q01DX011 (ip), vehicle: methylcellulose (MC)); 3 % of control (dose: 300.0 mg/kg/injection, schedule: Q01DX011 (ip), vehicle: methylcellulose (MC)).
Turning to `CCOC(N)=O`, the T/C (dose: 62.5 mg/kg/injection, schedule: Q#A X022 (ip), vehicle: saline) is 52 % of control; the T/C (dose: 62.62 mg/kg/injection, schedule: Q01DX011 (ip), vehicle: carboxymethylcellulose (CMC)) is 79 % of control; the T/C (dose: 102.5 mg/kg/injection, schedule: Q01DX011 (ip), vehicle: carboxymethylcellulose (CMC)) is 94 % of control; the T/C (dose: 125.0 mg/kg/injection, schedule: Q01DX001 (ip), vehicle: saline) was 121 % of control; the T/C (dose: 125.0 mg/kg/injection, schedule: Q01DX006 (iv), vehicle: saline) is 75 % of control; the T/C (dose: 125.0 mg/kg/injection, schedule: Q01DX011 (im), vehicle: saline) is 83 % of control. Further, the T/C was 85 % of control (dose: 125.0 mg/kg/injection, schedule: Q01DX011 (ip), vehicle: methylcellulose (MC)); 68 % of control (dose: 125.0 mg/kg/injection, schedule: Q01DX011 (ip), vehicle: saline); 96 % of control (dose: 125.0 mg/kg/injection, schedule: Q01DX011 (sc), vehicle: saline); 104 % of control (dose: 125.0 mg/kg/injection, schedule: Q07DX002 (ip), vehicle: saline); 59 % of control (dose: 125.0 mg/kg/injection, schedule: Q#A X022 (ip), vehicle: saline); 63 % of control (dose: 125.25 mg/kg/injection, schedule: Q01DX011 (ip), vehicle: carboxymethylcellulose (CMC)). For the same molecule, the T/C by setting is: (dose: 200.4 mg/kg/injection, schedule: Q01DX011 (ip), vehicle: carboxymethylcellulose (CMC)) 41 % of control and 50 % of control; (dose: 205.0 mg/kg/injection, schedule: Q01DX011 (ip), vehicle: carboxymethylcellulose (CMC)) 116 % of control; (dose: 250.0 mg/kg/injection, schedule: Q01DX001 (ip), vehicle: saline) 92 % of control and 93 % of control; (dose: 250.0 mg/kg/injection, schedule: Q01DX006 (iv), vehicle: saline) 74 % of control; (dose: 250.0 mg/kg/injection, schedule: Q01DX011 (im), vehicle: saline) 65 % of control; (dose: 250.0 mg/kg/injection, schedule: Q01DX011 (ip), vehicle: methylcellulose (MC)) 53 % of control. Besides, the T/C by setting is: (dose: 250.0 mg/kg/injection, schedule: Q01DX011 (ip), vehicle: saline) 51 % of control; (dose: 250.0 mg/kg/injection, schedule: Q01DX011 (oral), vehicle: saline) 69 % of control; (dose: 250.0 mg/kg/injection, schedule: Q01DX011 (sc), vehicle: saline) 67 % of control; (dose: 250.0 mg/kg/injection, schedule: Q07DX002 (ip), vehicle: saline) 85 % of control; (dose: 250.0 mg/kg/injection, schedule: Q#A X022 (ip), vehicle: saline) 9 % of control; (dose: 328.0 mg/kg/injection, schedule: Q01DX011 (ip), vehicle: carboxymethylcellulose (CMC)) 41 % of control and 52 % of control. Further, the T/C runs as follows: (dose: 375.0 mg/kg/injection, schedule: Q03DX004 (ip), vehicle: saline) 59 % of control; (dose: 500.0 mg/kg/injection, schedule: Q01DX001 (ip), vehicle: saline) 110 % of control and 85 % of control; (dose: 500.0 mg/kg/injection, schedule: Q01DX006 (iv), vehicle: saline) 38 % of control; (dose: 500.0 mg/kg/injection, schedule: Q01DX011 (im), vehicle: saline) 32 % of control; (dose: 500.0 mg/kg/injection, schedule: Q01DX011 (ip), vehicle: methylcellulose (MC)) 33 % of control; (dose: 500.0 mg/kg/injection, schedule: Q01DX011 (ip), vehicle: saline) 19 % of control. Moreover, the T/C is 20 % of control (dose: 500.0 mg/kg/injection, schedule: Q01DX011 (oral), vehicle: saline); 42 % of control (dose: 500.0 mg/kg/injection, schedule: Q01DX011 (sc), vehicle: saline); 83 % of control (dose: 500.0 mg/kg/injection, schedule: Q07DX002 (ip), vehicle: saline); 17 % of control and 27 % of control (dose: 501.0 mg/kg/injection, schedule: Q01DX011 (ip), vehicle: carboxymethylcellulose (CMC)); 22 % of control and 23 % of control (dose: 546.6 mg/kg/injection, schedule: Q01DX011 (ip), vehicle: carboxymethylcellulose (CMC)); 54 % of control (dose: 750.0 mg/kg/injection, schedule: Q03DX004 (ip), vehicle: saline). Besides, the T/C was 10 % of control and 20 % of control (dose: 820.0 mg/kg/injection, schedule: Q01DX011 (ip), vehicle: carboxymethylcellulose (CMC)); 49 % of control and 64 % of control (dose: 1000.0 mg/kg/injection, schedule: Q01DX001 (ip), vehicle: saline); 21 % of control (dose: 1000.0 mg/kg/injection, schedule: Q01DX006 (iv), vehicle: saline); 69 % of control (dose: 1000.0 mg/kg/injection, schedule: Q07DX002 (ip), vehicle: saline).
As to `O=[N+]([O-])c1ccc(Oc2cc(Cl)c(Cl)cc2Cl)c([N+](=O)[O-])c1`, the T/C is, setting by setting: (dose: 100.0 mg/kg/injection, schedule: Q01DX011 (ip), vehicle: other) 91 % of control; (dose: 200.0 mg/kg/injection, schedule: Q01DX011 (ip), vehicle: carboxymethylcellulose (CMC)) 56 % of control and 74 % of control; (dose: 200.0 mg/kg/injection, schedule: Q01DX011 (ip), vehicle: other) 91 % of control; (dose: 400.0 mg/kg/injection, schedule: Q01DX011 (ip), vehicle: carboxymethylcellulose (CMC)) 61 % of control; (dose: 400.0 mg/kg/injection, schedule: Q01DX011 (ip), vehicle: other) 54 % of control; (dose: 800.0 mg/kg/injection, schedule: Q01DX011 (ip), vehicle: carboxymethylcellulose (CMC)) 19 % of control. In addition, under “dose: 800.0 mg/kg/injection, schedule: Q01DX011 (ip), vehicle: other”, the T/C is 33 % of control.
